Test results taken from patent publication US6482921B1, “Uridyl peptide antibiotic (UPA) derivatives, their synthesis and use” (Essential Therapeutics, Inc., priority 1999, dated 2002).
Converted amounts (≈) assume the structure as drawn.

How the values were obtained:
Format in all cases: cell-based
[1] = test system: Pseudomonas aeruginosa PAM 1020; test: MIC broth microdilution, P. aeruginosa PAM 1020 (wild type); conditions: P. aeruginosa PAM 1020
[2] = test system: Pseudomonas aeruginosa PAM 1154; test: MIC broth microdilution, P. aeruginosa PAM 1154 (OprM::Hg); conditions: P. aeruginosa PAM 1154 OprM::Hg
[3] = test system: Pseudomonas aeruginosa PAM 1135; test: MIC broth microdilution, P. aeruginosa PAM 1135 (high level UPA resistance); conditions: P. aeruginosa PAM 1135 UPA1^r
[4] = test system: Pseudomonas aeruginosa PAM 1323; test: MIC broth microdilution, P. aeruginosa PAM 1323 (medium level UPA resistance)
Procedure: Compounds were tested against several panels of bacteria. In a first panel, Table 3, several strains of Pseudomonas aeruginosa, Escherichia coli and Staphylococcus aureus were employed as the target bacteria.
For the bacteria in Table 3, the assay was performed in Mueller-Hinton Broth (MHB) with a final bacterial inoculum of 5×10^5 CFU/ml and a final volume of 100 μl. Control drugs, including imipenem and pacidimycin 4, and the test compounds were prepared at a concentration which was twice the desired final concentration (256 μg/ml). Dilution of the controls and the test compounds was accomplished directly on the test plates by serial 2-fold dilution using a multi-channel pipette. Both a positive and a negative growth control was included in each plate.
The bacterial inocula were prepared as follows. Bacterial strains were grown overnight at 35° C. in MHB. […] The culture was then diluted 1:10 and allowed to grow for an additional one hour at 35° C. in a shaking incubator. The inocula were then prepared by diluting the early log phase (one hour) cultures 1:2000 with fresh MHB. A volume of 50 μl of the inocula was added to each well, resulting in an inoculum of approximately 5×10^5 CFU/ml. The exact inocula were determined by putting 10 μl of 10-fold serial dilution of the bacterial suspensions onto TSA. After overnight incubation at 35° C., colony-forming units were counted manually.
The microtiter plates were incubated for 20 hours at 35° C. and were then read using a microtiterplate reader (Molecular Devices) at 650 nm as well as being visually observed using a microtiterplate reading mirror.

[5] = test system: Escherichia Coli MC 4100; test: MIC broth microdilution, E. coli MC 4100 (wild type); conditions: E. coli MC 4100
[6] = test system: Escherichia Coli MC 4100 AcrAB; test: MIC broth microdilution, E. coli MC 4100 AcrAB (ΔAcrAB); conditions: E. coli AcrAB
[7] = test system: Escherichia Coli MC 4100 AcrAB UPA3r; test: MIC broth microdilution, E. coli MC 4100 AcrAB UPA3r (ΔAcrAB, UPA resistant); conditions: E. coli AcrAB UPA3^r
[8] = test system: Staphylococcus aureus ATCC 29213; test: MIC broth microdilution, S. aureus ATCC 29213 (wild type); conditions: S. aureus ATCC 29213
[9] = test system: Staphylococcus aureus 8325-4; test: MIC broth microdilution, S. aureus 8325-4 (wild type); conditions: S. aureus 8325-4
[10] = test system: Pasteurella multocida pm002; test: MIC broth microdilution, P. multocida pm002 (wild type)

Row | SMILES | MIC (μg/ml) Broth microdilution [1] | MIC (μg/ml) Broth microdilution [2] | MIC (μg/ml) Broth microdilution [3] | MIC (μg/ml) Broth microdilution [4] | MIC (μg/ml) Broth microdilution [5] | MIC (μg/ml) Broth microdilution [6] | MIC (μg/ml) Broth microdilution [7] | MIC (μg/ml) Broth microdilution [8] | MIC (μg/ml) Broth microdilution [9] | MIC (μg/ml) Broth microdilution [10]
1 | CSCCC(NC(=O)NC(Cc1c[nH]c2ccccc12)C(=O)O)C(=O)NC(C(=O)NCC1CC(O)C(n2ccc(=O)[nH]c2=O)O1)C(C)N(C)C(=O)CN [Compound 112, 1-[5′-[(2S,3S)-N^2-[N-[[(1S)-1-Carboxy-2-indol-3-ylethyl]carbamoyl]-L-methionyl]-N^3-glycyl-N^3-methyl-2,3-diaminobutyramido]-3′,5′-dideoxy-α-L-arabinofuranosyl]uracil] | 16 µg/mL (≈ 21.1 µM) | 4 µg/mL (≈ 5.26 µM) | >512 µg/mL | 256 µg/mL (≈ 337 µM) | >512 µg/mL | 2 µg/mL (≈ 2.63 µM) | 16 µg/mL (≈ 21.1 µM) | >512 µg/mL | >512 µg/mL | 128 µg/mL (≈ 168 µM)
2 | CC(C(NC(=O)C(Cc1ccc(F)cc1)NC(=O)NC(Cc1c[nH]c2ccccc12)C(=O)O)C(=O)NCC1CC(O)C(n2ccc(=O)[nH]c2=O)O1)N(C)C(=O)C(N)Cc1ccccc1 [Compound 113, 1-[5′-[(2S,3S)-[N-[[(1S)-1-Carboxy-2-indol-3-ylethyl]carbamoyl]-L-4-fluorophenylalanyl]-N^3-L-phenylalanyl-N^3-methyl-2,3-diaminobutyramido]-3′,5′-dideoxy-α-L-arabinofuranosyl]uracil] | 64 µg/mL (≈ 72.4 µM) | 64 µg/mL (≈ 72.4 µM) | >512 µg/mL | >512 µg/mL | >512 µg/mL | 8 µg/mL (≈ 9.05 µM) | 64 µg/mL (≈ 72.4 µM) | >512 µg/mL | >512 µg/mL | 512 µg/mL (≈ 579 µM)
3 | CC(C(NC(=O)C(Cc1ccccc1)NC(=O)NC(Cc1c[nH]c2ccccc12)C(=O)O)C(=O)NCC1CC(O)C(n2ccc(=O)[nH]c2=O)O1)N(C)C(=O)C(N)Cc1ccc(F)cc1 [Compound 114, 1-[5′-((2S,3S)-N^2-[N-[[(1S)-1-Carboxy-2-indol-3-ylethyl]carbamoyl]-L-phenylalanyl]-N^3-L-4-fluorophenylalanyl-N^3-methyl-2,3-diaminobutyramidol-3′,5′-dideoxy-α-L-arabinofuranosyl]uracil] | 16 µg/mL (≈ 18.1 µM) | 16 µg/mL (≈ 18.1 µM) | 256 µg/mL (≈ 290 µM) | 256 µg/mL (≈ 290 µM) | 512 µg/mL (≈ 579 µM) | 8 µg/mL (≈ 9.05 µM) | 512 µg/mL (≈ 579 µM) | >512 µg/mL | >512 µg/mL | 256 µg/mL (≈ 290 µM)
4 | CC(C(NC(=O)C(Cc1ccc(F)cc1)NC(=O)NC(Cc1c[nH]c2ccccc12)C(=O)O)C(=O)NCC1CC(O)C(n2ccc(=O)[nH]c2=O)O1)N(C)C(=O)CN [Compound 116, 1-[5′-[(2S,3S)-N^2-[N-[[(1S)-1-Carboxy-2-indol-3-ylethyl)carbamoyl]-L-4-fluorophenylalanyl]-N^3-glycyl-N^3-methyl-3-diaminobutyramido]-3′,5′-dideoxy-α-L-arabinofuranosyl]uracil] | 32 µg/mL (≈ 40.3 µM) | 8 µg/mL (≈ 10.1 µM) | >512 µg/mL | 512 µg/mL (≈ 645 µM) | 256 µg/mL (≈ 322 µM) | <1 µg/mL | 16 µg/mL (≈ 20.2 µM) | 512 µg/mL (≈ 645 µM) | 256 µg/mL (≈ 322 µM) | 128 µg/mL (≈ 161 µM)
5 | CC(C(NC(=O)C(Cc1ccc(F)cc1)NC(=O)NC(Cc1c[nH]c2ccccc12)C(=O)O)C(=O)NCC1CC(O)C(n2ccc(=O)[nH]c2=O)O1)N(C)C(=O)C(N)Cc1ccc(F)cc1 [Compound 118, 1-[5′-(2S,3S)-N^2-[N-[[(1S)-1-Carboxy-2-indol-3-ylethyl]carbamoyl]-L-4-fluorophenylalanyl]-N^3-L-4-fluorophenylalanyl-N^3-methyl-2,3-diaminobutyramido]-3′,5′-dideoxy-α-L-arabinofuranosyl]uracil] | 128 µg/mL (≈ 142 µM) | 128 µg/mL (≈ 142 µM) | 256 µg/mL (≈ 284 µM) | 256 µg/mL (≈ 284 µM) | 512 µg/mL (≈ 568 µM) | 8 µg/mL (≈ 8.87 µM) | 256 µg/mL (≈ 284 µM) | >512 µg/mL | >512 µg/mL | 256 µg/mL (≈ 284 µM)
6 | CC(N)C(=O)N(C)C(C)C(NC(=O)C(Cc1cccs1)NC(=O)NC(Cc1ccc(O)cc1)C(=O)O)C(=O)NCC1CC(O)C(n2ccc(=O)[nH]c2=O)O1 [Compound 119, 1-[5-[(2S,3S)-N^3-L-Alanyl-N^2-[N-[[(1S)-1-carboxy-4-hydroxyphenethyl]carbamoyl]-L-3-(2-thienyl)alanyl]-N^3-methyl-2,3-diaminobutyramido]-3′,5′-dideoxy-α-L-arabinofuranosyl]uracil] | 64 µg/mL (≈ 82.8 µM) | 32 µg/mL (≈ 41.4 µM) | >512 µg/mL | >512 µg/mL | >512 µg/mL | 4 µg/mL (≈ 5.18 µM) | 64 µg/mL (≈ 82.8 µM) | >512 µg/mL | >512 µg/mL | >512 µg/mL
7 | CC(C)CC(NC(=O)NC(Cc1ccc(O)cc1)C(=O)O)C(=O)NC(C(=O)NCC1CC(O)C(n2ccc(=O)[nH]c2=O)O1)C(C)N(C)C(=O)CN [Compound 120, 1-[5′-[(2S,3S)-N^2-[N-[[(1S)-1-Carboxy-4-hydroxyphenethyl]carbamoyl]-L-leucyl)-N^3-glycyl-N^3-methyl-2,3-diaminobutyramidol-3′,5′-dideoxy-α-L-arabinofuranosyl]uracil] | 16 µg/mL (≈ 22.3 µM) | 4 µg/mL (≈ 5.57 µM) | >512 µg/mL | 512 µg/mL (≈ 712 µM) | >512 µg/mL | 8 µg/mL (≈ 11.1 µM) | 128 µg/mL (≈ 178 µM) | >512 µg/mL | >512 µg/mL | 512 µg/mL (≈ 712 µM)
8 | CC(NC(=O)NC(Cc1c[nH]c2ccccc12)C(=O)O)C(=O)NC(C(=O)NCC1CC(O)C(n2ccc(=O)[nH]c2=O)O1)C(C)N(C)C(=O)CN [Compound 121, 1-[5′1-[(2S,3S)-N^2-[N-[[(1S)-1-Carboxy-2-indol-3-ylethyl)carbamoyl]-L-alanyl]-N^3-glycyl-N^3-methyl-2,3-diaminobutyramido]-3′,5′-dideoxy-α-L-arabinofuranosyl]uracil] | 64 µg/mL (≈ 91.5 µM) | 4 µg/mL (≈ 5.72 µM) | >512 µg/mL | >512 µg/mL | >512 µg/mL | 2 µg/mL (≈ 2.86 µM) | 16 µg/mL (≈ 22.9 µM) | >512 µg/mL | >512 µg/mL | >512 µg/mL
9 | CC(N)C(=O)N(C)C(C)C(NC(=O)C(Cc1ccccc1)NC(=O)NC(Cc1ccccc1)C(=O)O)C(=O)NCC1CC(O)C(n2ccc(=O)[nH]c2=O)O1 [Compound 122, 1-[5′-[[(2S,3S)-N^3-L-Alanyl-N^2-[N-[[(1S)-1-carboxy-phenethyl]carbamoyl]-L-phenylalanyl]-N^3-methyl-2,3-diaminobutyramido]-3′,5′-dideoxy-α-L-arabinofuranosyl]uracil] | 64 µg/mL (≈ 85.2 µM) | 16 µg/mL (≈ 21.3 µM) | >512 µg/mL | >512 µg/mL | >512 µg/mL | 4 µg/mL (≈ 5.33 µM) | 64 µg/mL (≈ 85.2 µM) | >512 µg/mL | 512 µg/mL (≈ 682 µM) | >512 µg/mL
